In patent US7858644B2, “EP4 receptor antagonists” (Asterand UK Limited, priority 2003, dated 2010):

Columns and labels:
[1] = biological target: T1, human EP4 receptor (Homo sapiens, UniProt P35408); assay: Binding ability to human EP4 receptor ([3H]PGE2 displacement); details: read-out: pKi EP4 (converted)
T1 construct: expressed in transfected cells
Procedure: (§1) Membranes were prepared from cells stably transfected with human EP receptor cDNA. In brief, cells were cultured to confluency, scraped from culture flasks, and centrifuged (800 g, 8 minutes, 4° C.). Cells were twice washed in ice cold homogenisation buffer containing 10 mMTris-HCl, 1 mM EDTA. 2Na, 250 mM sucrose, 1 mM PMSF, 0.3 mM indomethacin, pH 7.4, homogenised and re-centrifuged as before. The supernatant was stored on ice and pellets re-homogenised and re-spun. Supernatants were pooled and centrifuged at 40000 g, 10 minutes, 4° C. Resultant membrane pellets were stored at −80° C. until use.
(§2) Incubations were performed at suitable temperatures and for suitable times to allow equilibrium to be reached. Non-specific binding was determined in the presence of 10 uM PGE2. Bound and free radiolabel was separated by vacuum manifold filtration using appropriate wash buffers, and bound radiolabel was determined by scintillation counting. Constituents of each of the buffers are included in table 1 below.
(§3) This approach follows that set out in Kenakin, T. P., Pharmacologic analysis of drug receptor interaction. Raven Press, New York, 2nd edition.

[2] = biological target: T2, human EP1 receptor (Homo sapiens, UniProt P34995); assay: Binding ability to human EP1 receptor ([3H]PGE2 displacement); details: membranes from cells stably transfected with human EP receptor cDNA; [3H]PGE2 3.6 nM; Cheng-Prusoff from IC50; read-out: pKi EP1 (converted)
T2 construct: expressed in transfected cells
T2 sequence (P34995 1-402): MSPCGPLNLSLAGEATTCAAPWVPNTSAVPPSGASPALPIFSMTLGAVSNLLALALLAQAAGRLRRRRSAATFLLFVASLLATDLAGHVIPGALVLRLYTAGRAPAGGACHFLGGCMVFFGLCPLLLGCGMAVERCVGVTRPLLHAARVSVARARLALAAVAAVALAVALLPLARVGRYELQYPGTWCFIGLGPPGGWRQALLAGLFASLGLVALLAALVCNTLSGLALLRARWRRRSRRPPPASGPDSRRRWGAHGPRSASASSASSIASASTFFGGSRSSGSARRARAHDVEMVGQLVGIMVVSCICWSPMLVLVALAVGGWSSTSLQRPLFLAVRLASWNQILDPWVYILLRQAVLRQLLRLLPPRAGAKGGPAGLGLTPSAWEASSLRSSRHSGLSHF
Procedure: as §1
as §2, with “For assay, membranes expressing human EP4, EP3, EP2 or EP1 receptors were incubated in Millipore (MHVBN45) plates containing assay buffer, radiolabelled [^3H]PGE2 and 0.1 to 10 000 nM concentrations of compounds. Incubations” for “Incubations”
as §3

[3] = biological target: T3, human EP2 receptor (Homo sapiens, UniProt P43116); assay: Binding ability to human EP2 receptor ([3H]PGE2 displacement); details: read-out: pKi EP2 (converted)
T3 construct: expressed in transfected cells
Outline: (§4)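 Membranes from cells stably transfected with human EP receptor cDNA were incubated to equilibrium with [3H]PGE2 and compound (0.1 to 10 000 nM). Non-specific binding was defined with 10 uM PGE2; bound radioligand was separated by vacuum filtration and counted by scintillation.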

[4] = biological target: T4, human EP3 receptor (Homo sapiens, UniProt P43115); assay: Binding ability to human EP3 receptor ([3H]PGE2 displacement); details: membranes from cells stably transfected with human EP receptor cDNA; [3H]PGE2 2.5 nM; Cheng-Prusoff from IC50; read-out: pKi EP3 (converted)
T4 construct: expressed in transfected cells
T4 sequence (P43115 1-390): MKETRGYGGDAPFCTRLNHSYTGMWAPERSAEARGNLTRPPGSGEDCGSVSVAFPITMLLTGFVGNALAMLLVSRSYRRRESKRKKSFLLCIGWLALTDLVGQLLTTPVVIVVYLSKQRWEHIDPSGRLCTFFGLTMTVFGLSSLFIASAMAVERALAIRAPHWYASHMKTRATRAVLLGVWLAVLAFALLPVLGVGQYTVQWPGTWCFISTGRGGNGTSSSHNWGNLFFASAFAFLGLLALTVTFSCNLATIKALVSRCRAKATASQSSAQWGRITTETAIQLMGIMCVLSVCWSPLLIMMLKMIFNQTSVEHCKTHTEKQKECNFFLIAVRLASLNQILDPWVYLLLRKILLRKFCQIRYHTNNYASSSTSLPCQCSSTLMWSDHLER
Outline: as §4

T1 sequence (P35408 whole entry): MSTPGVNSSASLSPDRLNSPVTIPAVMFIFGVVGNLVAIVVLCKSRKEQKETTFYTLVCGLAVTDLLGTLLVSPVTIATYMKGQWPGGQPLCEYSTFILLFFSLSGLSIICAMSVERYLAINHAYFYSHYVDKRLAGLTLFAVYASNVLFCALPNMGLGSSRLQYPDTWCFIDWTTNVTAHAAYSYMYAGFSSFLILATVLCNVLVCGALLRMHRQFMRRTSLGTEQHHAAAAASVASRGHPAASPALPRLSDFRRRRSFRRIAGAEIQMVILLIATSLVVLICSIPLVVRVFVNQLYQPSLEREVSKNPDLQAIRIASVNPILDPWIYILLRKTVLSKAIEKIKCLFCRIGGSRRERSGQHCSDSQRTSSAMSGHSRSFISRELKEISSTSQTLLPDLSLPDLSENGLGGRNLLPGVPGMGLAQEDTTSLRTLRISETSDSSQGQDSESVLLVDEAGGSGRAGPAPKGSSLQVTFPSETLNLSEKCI
T3 sequence (P43116 whole entry): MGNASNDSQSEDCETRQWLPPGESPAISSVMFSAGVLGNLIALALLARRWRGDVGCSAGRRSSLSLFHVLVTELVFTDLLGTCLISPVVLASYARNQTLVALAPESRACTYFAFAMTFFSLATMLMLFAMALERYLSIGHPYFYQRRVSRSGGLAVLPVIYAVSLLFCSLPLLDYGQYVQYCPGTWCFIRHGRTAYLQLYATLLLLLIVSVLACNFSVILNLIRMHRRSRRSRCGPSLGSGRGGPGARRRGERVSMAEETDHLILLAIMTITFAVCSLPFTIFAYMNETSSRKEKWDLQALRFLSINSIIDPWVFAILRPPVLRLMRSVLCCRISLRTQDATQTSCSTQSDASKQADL

Structure (SMILES)	Ki [1]	Ki [2]	Ki [3]	Ki [4]
COc1ccc(-c2ccc(NC(=O)c3cc(C(=O)O)oc3C)cc2)cc1 [Compound 24, 4-(4′-Methoxy-biphenyl-4-ylcarbamoyl)-5-methyl-furan-2-carboxylic acid]	< 0.316 µM	> 10 µM	> 10 µM	> 10 µM
COc1ccc(-c2ccc(OCc3cc(/C=C/C(=O)O)oc3C)cc2)cc1 [Compound 43, 3-[4-(4′-Methoxy-biphenyl-4-yloxymethyl)-5-methyl-furan-2-yl]-acrylic acid]	< 0.1 µM		> 10 µM	> 10 µM
CCCC(=O)NS(=O)(=O)c1cc(COc2ccc(-c3ccccc3)cc2)c(C)o1 [Compound 61, 4-(Biphenyl-4-yloxymethyl)-5-methyl-furan-2-sulphonic acid butyryl-amide]	< 1 µM		> 10 µM	> 10 µM
Cc1oc(S(=O)(=O)NC(=O)c2ccccc2)cc1COc1ccc(-c2ccccc2)cc1 [Compound 46, 4-(Biphenyl-4-yloxymethyl)-5-methyl-furan-2-sulfonic acid benzoylamide]	< 0.1 µM		> 10 µM	> 10 µM
CSc1ccccc1-c1ccc(OCc2cc(C(=O)O)oc2C)cc1 [Compound 105, 5-Methyl-4-(2′-methylsulfanyl-biphenyl-4-yloxymethyl)-furan-2-carboxylic acid]	< 3.16 µM		> 10 µM	> 10 µM
COc1ccc(-c2ccc(OCc3cc(C(=O)O)oc3C)cn2)cc1 [Compound 56, 4-[6-(4-Methoxy-phenyl)-pyridin-3-yloxymethyl]-5-methyl-furan-2-carboxylic acid]	< 3.16 µM		> 31.6 µM	> 10 µM
CC(C)c1oc(C(=O)O)cc1COc1ccc2c(c1)oc1ccccc12 [Compound 87, 4-(Dibenzofuran-3-yloxymethyl)-5-isopropyl-furan-2-carboxylic acid]	< 3.16 µM		> 10 µM	> 10 µM
COc1ccc(-c2ccc(OCc3coc(C(=O)O)c3)cc2)cc1 [Compound 80, 4-(4′-Methoxy-biphenyl-4-yloxymethyl)-furan-2-carboxylic acid]	< 0.316 µM		> 10 µM	> 10 µM
Cc1oc(S(=O)(=O)NC(=O)Cc2ccccc2)cc1COc1ccc(-c2ccccc2)cc1 [Compound 62, 4-(Biphenyl-4-yloxymethyl)-5-methyl-furan-2-sulphonic acid phenylacetyl-amide]	< 0.1 µM		> 10 µM	> 10 µM
COc1ccc(-c2ccc(OCc3cc(C(=O)NS(=O)(=O)c4ccccc4)oc3C)cc2)[n+]([O-])c1 [Compound 135, N-{4-[4-(5-Methoxy-1-oxy-pyridin-2-yl)-phenoxymethyl]-5-methyl-furan-2-carbonyl}-benzenesulphonamide]	< 10 µM		> 10 µM	> 10 µM
Cc1oc(C(=O)O)cc1CN(C)c1ccc(-c2ccc(OC(F)F)cc2)cc1 [Compound 176, 4-{[(4′-Difluoromethoxy-biphenyl-4-yl)-methyl-amino]-methyl}-5-methyl-furan-2-carboxylic acid]	< 0.316 µM		> 10 µM	> 10 µM
Cc1oc(C(=O)O)cc1CSc1ccc(-c2ccc(OC(F)F)cc2)cc1 [Compound 153, 4-(4′-Difluoromethoxy-biphenyl-4-ylsulphanylmethyl)-5-methyl-furan-2-carboxylic acid]	< 1 µM		> 10 µM	> 10 µM
O=C(O)c1cc(COc2ccc3c(c2)oc2ccccc23)c(C(F)(F)F)o1 [Compound 95, 4-(Dibenzofuran-3-yloxymethyl)-5-trifluoromethyl-furan-2-carboxylic acid]	< 3.16 µM		> 3.16 µM	> 10 µM
Cc1oc(S(=O)(=O)NC(=O)c2ccncc2)cc1COc1ccc(-c2ccccc2)cc1 [Compound 67, 4-(Biphenyl-4-yloxymethyl)-5-methyl-furan-2-sulphonic acid (pyridine-4-carbonyl)-amide]	< 1 µM		> 10 µM	> 10 µM
Cc1oc(C(=O)NS(=O)(=O)c2ccccc2)cc1CSc1ccc(-c2ccc(OC(F)F)cc2)cc1 [Compound 155, N-[4-(4′-Difluoromethoxy-biphenyl-4-ylsulphanylmethyl)-5-methyl-furan-2-carbonyl]-benzenesulphonamide]	< 1 µM		> 3.16 µM	> 3.16 µM
COc1ccc(-c2ccc(OCc3cc(C(=O)O)oc3C(C)C)cc2)cc1 [Compound 86, 5-Isopropyl-4-(4′-methoxy-biphenyl-4-yloxymethyl)-furan-2-carboxylic acid]	< 1 µM		> 10 µM	> 10 µM
Cc1oc(C(=O)O)cc1COc1ccc(-c2ccccc2OC(F)(F)F)cc1 [Compound 115, 5-Methyl-4-(2′-trifluoromethoxy-biphenyl-4-yloxymethyl)-furan-2-carboxylic acid]	< 10 µM		> 10 µM	> 10 µM
Cc1oc(C(=O)O)cc1CCOc1ccc2c(c1)oc1ccccc12 [Compound 74, 4-[2-(Dibenzofuran-3-yloxy)-ethyl]-5-methyl-furan-2-carboxylic acid]	< 3.16 µM		> 10 µM	> 10 µM
Cc1oc(S(=O)(=O)NC(=O)c2cccs2)cc1COc1ccc(-c2ccccc2)cc1 [Compound 64, 4-(Biphenyl-4-yloxymethyl)-5-methyl-furan-2-sulphonic acid (thiophene-2-carbonyl)-amide]	< 0.1 µM		> 10 µM	> 10 µM
Cc1ccccc1S(=O)(=O)NC(=O)c1cc(C[S+]([O-])c2ccc(-c3ccc(OC(F)F)cc3)cc2)c(C)o1 (stereo not shown) [Compound 156, N-[4-(4′-Difluoromethoxy-biphenyl-4-ylsulphinylmethyl)-5-methyl-furan-2-carbonyl]-2-methyl-benzenesulphonamide]	< 10 µM		> 10 µM	> 10 µM
Cc1oc(C(=O)O)cc1COc1ccc(-c2ccccc2Cl)cc1 [Compound 99, 4-(2′-Chloro-biphenyl-4-yloxymethyl)-5-methyl-furan-2-carboxylic acid]	< 1 µM		> 3.16 µM	> 10 µM
Cc1oc(C(=O)O)cc1CNc1ccc(-c2ccccc2)cc1 [Compound 160, 4-(Biphenyl-4-ylaminomethyl)-5-methyl-furan-2-carboxylic acid]	< 3.16 µM		> 10 µM	> 10 µM
Cc1oc(C(=O)NS(=O)(=O)c2ccccc2)cc1CNc1ccc(-c2ccc(OC(F)F)cc2)cc1 [Compound 172, N-{4-[(4′-Difluoromethoxy-biphenyl-4-ylamino)-methyl]-5-methyl-furan-2-carbonyl}-benzenesulphonamide]	< 0.01 µM		> 10 µM	> 10 µM
Cc1ccccc1S(=O)(=O)NC(=O)c1cc(CSc2ccc(-c3ccc(OC(F)F)cc3)cc2)c(C)o1 [Compound 154, N-[4-(4′-Difluoromethoxy-biphenyl-4-ylsulphanylmethyl)-5-methyl-furan-2-carbonyl]-2-methyl-benzenesulphonamide]	< 0.0316 µM		> 3.16 µM	> 1 µM
N#Cc1ccc(-c2ccc(OCc3coc(C(=O)O)c3)cc2)cc1 [Compound 79, 4-(4′-Cyano-biphenyl-4-yloxymethyl)-furan-2-carboxylic acid]	< 3.16 µM		> 10 µM	> 10 µM
